{
  "source": "patent US8841073B2",
  "about": "“Methods for identifying RNA segments bound by RNA-binding proteins or ribonucleoprotein complexes” (The Rockefeller University, priority 2008, dated 2014)",
  "key": {"[1]": {"target": "T1, FLAG/HA-tagged RBP IGF2BP1 (Homo sapiens, UniProt Q9NZI8)", "T1 construct": "expressed in transfected cells; host or cells: Flp-In T-REx HEK293 (Invitrogen), pFRT/TO/FLAG/HA-DEST, doxycycline-induced", "T1 sequence (Q9NZI8 whole entry)": "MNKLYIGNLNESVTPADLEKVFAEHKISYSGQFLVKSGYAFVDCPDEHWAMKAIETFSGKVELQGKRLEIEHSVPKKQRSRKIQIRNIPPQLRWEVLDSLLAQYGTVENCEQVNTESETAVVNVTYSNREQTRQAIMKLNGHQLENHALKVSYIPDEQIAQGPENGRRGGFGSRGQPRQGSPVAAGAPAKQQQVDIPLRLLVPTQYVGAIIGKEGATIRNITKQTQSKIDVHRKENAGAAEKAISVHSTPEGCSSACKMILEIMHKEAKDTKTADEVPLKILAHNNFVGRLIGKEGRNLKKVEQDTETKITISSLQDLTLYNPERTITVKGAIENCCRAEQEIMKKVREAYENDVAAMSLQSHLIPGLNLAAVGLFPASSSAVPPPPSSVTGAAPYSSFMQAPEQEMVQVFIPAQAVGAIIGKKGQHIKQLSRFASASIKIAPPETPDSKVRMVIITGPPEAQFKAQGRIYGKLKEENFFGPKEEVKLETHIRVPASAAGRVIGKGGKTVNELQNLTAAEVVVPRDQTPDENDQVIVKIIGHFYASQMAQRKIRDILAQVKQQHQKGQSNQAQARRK", "assay": "UV 365 nm crosslinking of RNA to FLAG/HA-IGF2BP1 in cells cultured with photoreactive nucleoside (IP, 32P-labeling, SDS gel phosphorimaging)", "assay_type": "cell-based", "settings": "100 μM photoreactive nucleoside, 365 nm UV", "procedure": "FIG. 1. PURE-CLIP methodology. A Structure of photoreactive nucleosides. B Incorporation of photoreactive nucleosides to enable UV 365 nm crosslinking of RNA to RNA-binding IGF2BP1 protein. Upper panels show phosphorimages of SDS protein gels resolving 5′-32P-labeled RNA-FLAG/HA-IGF2BP1 immunoprecipitates (IPs) prepared from lysates from cells that were cultured in media in the absence or presence of 100 μM photoreactive nucleoside for 12 hrs and crosslinked with 365 nm UV. For comparison, a sample prepared from cells crosslinked at 254 nm, was included. Lower panels show immunoblots probed with an anti-HA antibody confirming uniform gel loading. C Illustration of the method. […]\nIncorporation of modified photoreactive nucleoside analogues into RNA facilitates UV crosslinking to RBPs (Meisenheimer and Koch, 1997), as shown previously for in vitro transcribed site-specifically labeled RNAs (Kirino and Mourelatos, 2008; Moore and Query, 1998). Several of these photoreactive nucleosides are excitable by longer wavelength UV (>300 nm) and are readily taken up by cells, where they are incorporated into nascent transcripts without noticeable toxicity and then can be used for in vivo crosslinking (Bezerra and Favre, 1990; Favre et al., 1986; Wagenmakers et al., 1980). […]"}, "[2]": {"tested_on": "cells", "settings": "exposure longer than 24 hrs in culture medium; cited from earlier work"}, "[3]": {"target": "T2, recombinant QKI protein (Homo sapiens, UniProt Q96PU8)", "T2 construct": "His6 (N); made in house; host or cells: E. coli STAR(DE3)", "T2 sequence (Q96PU8 1-319 isoform Q96PU8-9)": "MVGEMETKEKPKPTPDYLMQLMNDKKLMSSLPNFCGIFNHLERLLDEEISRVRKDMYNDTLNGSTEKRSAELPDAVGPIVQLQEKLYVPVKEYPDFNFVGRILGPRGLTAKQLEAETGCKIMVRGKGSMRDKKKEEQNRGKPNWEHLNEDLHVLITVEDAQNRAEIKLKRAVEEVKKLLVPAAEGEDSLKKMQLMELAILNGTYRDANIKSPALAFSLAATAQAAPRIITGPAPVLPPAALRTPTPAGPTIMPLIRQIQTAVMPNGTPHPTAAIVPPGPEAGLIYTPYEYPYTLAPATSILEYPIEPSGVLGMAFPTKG", "assay": "UV 365 nm crosslinking of synthetic 4SU-containing oligoribonucleotides to recombinant QKI", "assay_type": "biochemical", "settings": "4SU at position 2 vs position 3 of the recognition element", "from_the_text": "FIG. 3. RNA recognition sites of QKI protein. A Domain structure of QKI protein. B Phosphorimage of SDS polyacrylamide gel resolving radiolabeled RNA crosslinked to FLAG/HA-QKI IPs from non-irradiated or UV-irradiated 4SU-labeled cells. […] C Two alignments of PURE-CLIP cDNA sequence reads to the corresponding regions of the 3′UTRs of the Refseq CTNNB1 and HOXD13 transcripts, respectively. Red bars indicate the QKI recognition motif and red-letter nucleotides indicate T to C sequence changes. D Weblogo of the QKI recognition motif generated by PhyloGibbs analysis of the top 100 sequence read clusters. […] F Sequences of synthetic 4SU-labeled oligoribonucleotides with QKI recognition motifs, derived from a sequence read cluster aligning to the 3′UTR of HOXD13 (see c). […]\nTo better understand the […] sequence conversion after sequencing of crosslinked RNA segments, we subjected synthetic 4SU-containing oligoribonucleotides together with recombinant QKI to UV 365 nm crosslinking (FIGS. 3F, G). […] RNA-binding to recombinant QKI protein was unaffected by 4SU incorporation at U9 or U10 as determined by gel-shift analysis (FIG. 11A-B), whereas regular mutation of the recognition element weakened the binding (FIG. 11C). […]"}, "[4]": {"target": "T3, recombinant His6-QKI protein (Homo sapiens, UniProt Q96PU8)", "T3 construct": "His6 (N); made in house; host or cells: E. coli STAR(DE3)", "T3 sequence (Q96PU8 1-319 isoform Q96PU8-9)": "T2 sequence (Q96PU8 1-319 isoform Q96PU8-9)", "assay": "Electrophoretic mobility shift assay (gel-shift) with recombinant QKI", "assay_type": "binding", "procedure": "FIG. 11: Electrophoretic mobility shift assay (EMSA) to analyze binding of recombinant QKI to synthetic oligoribonucleotides with a sequence derived from a cluster identified by QKI PURE-CLIP. […] C Mutation of either one of the QKI binding sites (marked with red bars in the RNA-sequence) results in decreased affinity of QKI to the RNA. Mutation of both binding sites leads to complete loss of affinity of QKI to the RNA.\nRadiolabeled RNA (1 nM) was incubated with recombinant His6-QKI protein at various concentrations and 100 ng tRNA in 20 μl of 20 mM HEPES-KOH, pH 7.4, 330 mM KCl, 10 mM MgCl2, 0.1 mM EDTA and 0.01% IGEPAL CA630 (Sigma). After addition of 6 μl loading dye (40% glycerol, bromophenol blue in binding buffer), the solution was loaded onto a native 10% acrylamide gel containing 0.5×TBE, running at 200 V for 2 h at room temperature, using 0.5×TBE as running buffer. The protein-bound RNA and the free RNA were quantified using a phosphorimager."}, "[5]": {"tested_on": "transcripts containing miR-7- or miR-124-specific CCRs", "assay": "miR-7 and miR-124 duplex transfection into HEK293 cells, mRNA stability by Affymetrix microarrays", "assay_type": "cell-based, human", "settings": "HEK293 cells stably expressing FLAG/HA-AGO2", "from_the_text": "To allow for a comparison to such studies, we transfected miRNA duplexes corresponding to the deeply conserved miR-7 and miR-124 into HEK293 cells stably expressing FLAG/HA-AGO2 and performed PURE-CLIP. Before transfection, these miRNAs were only present in trace amounts in HEK293 cells, less than 0.2% of total miRNA abundance. We found 1,866 unique sequence read clusters in the miR-7 and 10,929 in the miR-124 transfection experiments. The CCRs isolated from miR-7 and miR-124 transfection experiments were enriched for the seed sequences of the transfected miRNA duplexes. These CCRs were predominantly exonic (87 and 88%, respectively), 28% mapped to the CDS, 57 and 59%, respectively, to the 3′UTR of mRNAs and only 3 and 2%, respectively, to the 5′UTR. miR-7 and miR-124 binding sites that were located in the CDS for miR-7 and -124 were also embedded in regions with unusual codon bias, similar to the binding sites of endogenous miRNA target sites (FIG. 31).\nThe change in mRNA stability was analyzed after miRNA duplex transfection by Affymetrix whole genome microarrays (Hausser et al., submitted). We observed that transcripts containing miR-7- or miR-124-specific CCRs were destabilized upon miRNA delivery, especially for transcripts with CCRs located in the 3′UTR (FIG. 32-33). […]"}},
  "note": "[4sU] = 4-thiouridine",
  "data": [
    {"compound": "O=c1[nH]c(=S)ccn1[C@@H]1O[C@H](CO)[C@@H](O)[C@H]1O", "note": "[4SU, 4-thiouridine]", "values": [
      {"measurement": "crosslinking efficiency of nucleoside-labeled RNA to IGF2BP1", "setting": "[1]", "result": "crosslinked most efficiently"}
    ]},
    {"compound": "Nc1nc2c(ncn2[C@@H]2O[C@H](CO)[C@@H](O)[C@H]2O)c(=S)[nH]1", "note": "[6SG, 6-thioguanosine]", "values": [
      {"measurement": "concentration above which cytotoxicity is noticeable", "setting": "[2]", "result": "above 100 μM"}
    ]},
    {"compound": "U9: synthetic oligoribonucleotide with 4SU at position 2 of the QKI recognition element; GUAUGCCA(4sU)AACAAAUUCAUUAACAA (SEQ ID NO: 30) (GUAUGCCAUAACAAAUUCAUUAACAA; RNA, [4sU] at 9, backbone not given here)", "values": [
      {"measurement": "crosslinking efficiency to recombinant QKI relative to oligonucleotide U10", "setting": "[3]", "result": "approximately 50 times"},
      {"measurement": "RNA-binding / affinity to recombinant QKI by gel-shift analysis", "setting": "[4]", "result": "unaffected"}
    ]},
    {"compound": "miR-7: transfected miRNA duplex, 5'-UGGAAGACUAGUGAUUUUGUUGU / 5'-CAACAAAUCACAGUCUGCCAUA (SEQ ID NO: 66, 67) (listed as RNA, chemistry not given here)", "values": [
      {"measurement": "change in mRNA stability of CCR-containing transcripts after miRNA duplex transfection", "setting": "[5]", "result": "destabilized"}
    ]}
  ]
}
